This note sets out measurements from ChEMBL document CHEMBL4371055, “Bioactive polyoxygenated cembranoids from a novel Hainan chemotype of the soft coral Sinularia flexibilis” (Bioorg Med Chem Lett, 2019).

The nature of series [1]: Cytotoxicity against mouse RAW264.7 cells assessed as reduction in cell viability after 24 hrs by CCK8 assay. It counts as cell-based. (Tetrazolium assays rely on reduction of a dye to a coloured formazan, in cell work by metabolically active cells.)
The test system of the next series is SNU-398. Put plainly: Cytotoxicity against human SNU398 cells after 48 hrs by sulforhodamine B assay. Particulars: SNU-398, 48 h. It counts as functional, cell-based. A general note: Sulforhodamine B stains cellular protein and so reports cell mass.
Series [2] is described as follows: Selectivity index, ratio of CC50 for mouse RAW264.7 cells to IC50 for inhibition of LPS-induced TNFalpha production in mouse RAW264.7 cells. Particulars: read-out: Ratio CC50/IC50. It counts as toxicity, cell-based.
The test system of another series is HT-29. Put plainly: Cytotoxicity against human HT-29 cells after 48 hrs by sulforhodamine B assay. Particulars: HT-29, 48 h. The series is classed as functional, cell-based.
In another series the test system is CAPAN-1. In words: Cytotoxicity against human Capan1 cells after 48 hrs by sulforhodamine B assay. To be noted: CAPAN-1, 48 h. The series is classed as functional, cell-based.
The test system of a further series is RAW264.7. In words: Antiinflammatory activity in mouse RAW264.7 cells assessed as inhibition of LPS-induced TNFalpha production pretreated for 30 mins followed by LPS stimulation for 24 hrs by ELISA. The series is classed as functional, cell-based. A general note: An ELISA detects its analyte on a solid surface through an enzyme-linked reagent.
The subject of another series is A549. In words: Cytotoxicity against human A549 cells after 48 hrs by sulforhodamine B assay. The series is classed as functional, cell-based. To be noted: A549, 48 h.

In general, CC50 refers to the concentration at which the toxic effect on the cells reaches its halfway point. For orientation: pIC50 means the IC50 on a negative log10 scale, so that one unit is a factor of ten.

pIC50: −log10 of the molar value.

On to `C=C(C(=O)OC)[C@H]1CC[C@](C)(O)C(=O)CC/C(C)=C/CC[C@]2(C)O[C@@H]2C1`, for which the CC50 at 24 h in series [1] was greater than 50 µM. Also, the pIC50 in the series with SNU-398 is less than 4.30; in the series on HT-29, less than 4.30; with CAPAN-1, less than 4.30; in the series with RAW264.7 it was 4.88; in the series with A549, less than 4.30. Also, the selectivity ratio in series [2] was greater than 3.8.

As to `C=C(C)[C@@H]1CC[C@]2(C)O[C@H]2CC/C(C)=C/CC[C@]2(C)O[C@H]2C1`, the CC50 at 24 h in series [1] is greater than 50 µM. Besides, the pIC50 in the series with SNU-398, in the series with HT-29, in the series on CAPAN-1, in the series on RAW264.7 and with A549 was less than 4.30 each time.

On to `C=C(C(=O)OCCCC)[C@H]1CC[C@](C)(O)C(=O)CC/C(C)=C/CC[C@]2(C)O[C@@H]2C1`, for which, in series [1], the 50% cytotoxic concentration (CC50) at 24 h was greater than 50 µM. For the same molecule, the negative logarithm of the IC50 (pIC50) with SNU-398 is less than 4.30; in the series on HT-29 it was less than 4.30; with CAPAN-1 it was less than 4.30; with RAW264.7 it was 4.41; in the series with A549 it was less than 4.30. Further, in series [2], the selectivity ratio was greater than 1.3.

For `C=C(C(=O)OC)[C@H]1CC[C@@]2(C)O[C@@H]2CC/C(C)=C/CC[C@@]2(C)O[C@H]2C1`, the CC50 at 24 h in series [1] is greater than 50 µM. In addition, the pIC50 in the series with SNU-398 was less than 4.30; in the series on HT-29 it was less than 4.30; in the series on CAPAN-1, less than 4.30; in the series on RAW264.7 it was 5.38; in the series with A549 it was less than 4.30. In addition, in series [2], the selectivity ratio was greater than 11.9.

Regarding `C=C1C(=O)O[C@]2(C)CC[C@@H]1C[C@@H]1O[C@@]1(C)CC/C=C(\C)CC[C@H]2OC(C)=O`, in series [1], the half-maximal cytotoxic concentration (CC50) at 24 h was greater than 50 µM. The negative-log IC50 (pIC50) in the series with SNU-398 is 4.60; in the series on HT-29, 4.49; in the series on CAPAN-1, 4.54; in the series on RAW264.7, 5.57; with A549, less than 4.30. Further, the selectivity ratio in series [2] is greater than 18.5.

For the molecule `C=C(C(=O)OCCCC)[C@@H]1CC[C@@](C)(O)[C@@H]2CC[C@](C)(O2)[C@@H](OC(C)=O)CC[C@]2(C)O[C@H]2C1`, the CC50 at 24 h in series [1] is greater than 50 µM. For the same molecule, the negative logarithm of the IC50 (pIC50) in the series on SNU-398 is less than 4.30; with HT-29, less than 4.30; in the series with CAPAN-1 it was less than 4.30; in the series on RAW264.7, 4.68; with A549 it was less than 4.30. In series [2], the selectivity ratio is greater than 2.4.

In the case of `CC(=O)O[C@H]1C(=O)[C@@]2(C)[C@H]([C@H](OC(=O)c3ccccc3)[C@]3(O)C[C@H](OC(=O)[C@H](O)[C@@H](NC(=O)c4ccccc4)c4ccccc4)C(C)=C1C3(C)C)[C@]1(OC(C)=O)CO[C@@H]1C[C@@H]2O` [PACLITAXEL], the pIC50 in the series with SNU-398 was 9.22; with CAPAN-1, 8.48.

For the molecule `C[C@@H]1C[C@H]2[C@@H]3CCC4=CC(=O)C=C[C@]4(C)[C@@]3(F)[C@@H](O)C[C@]2(C)[C@@]1(O)C(=O)CO` [DEXAMETHASONE], the CC50 at 24 h in series [1] is greater than 50 µM. The selectivity ratio in series [2] was greater than 5.7. In addition, the negative-log IC50 (pIC50) in the series with RAW264.7 was 5.06.

As for `C=C1C(=O)O[C@]2(C)CC[C@@H]1C[C@@H]1O[C@@]1(C)CC/C=C(\C)CCC2=O`, the cytotoxic concentration (CC50) at 24 h in series [1] was greater than 50 µM. For the same molecule, the pIC50 with SNU-398 is 5.05; in the series on HT-29 it was 4.64; with CAPAN-1 it was 5.03; in the series on RAW264.7 it was less than 4.30; in the series with A549, 4.56.

Take `C=C1C(=O)O[C@]2(C)CC[C@@H]1C[C@@H]1O[C@@]1(C)CC/C=C(\C)CC[C@@H]2O` [SINULARIOLIDE]: the CC50 at 24 h in series [1] was greater than 50 µM. In addition, the pIC50 in the series on SNU-398 is 4.61; with HT-29 it was 4.47; in the series on CAPAN-1, 4.58; in the series with RAW264.7 it was 5.33; with A549, less than 4.30. In addition, the selectivity ratio in series [2] was greater than 10.6.

Consider `C=C(C(=O)OCCCC)[C@@H]1CC[C@@](C)(O)[C@H](O)CC/C(C)=C/CC[C@]2(C)O[C@H]2C1`, for which the CC50 at 24 h in series [1] was greater than 50 µM. In addition, the pIC50 in the series with SNU-398, in the series with HT-29, in the series on CAPAN-1, in the series on RAW264.7 and in the series on A549 was less than 4.30 each time.
